Reference: US20180092895A1, “METHOD OF TREATMENT OF HEPATITIS C” (priority 2016, published 2018)

Experiments:
HCV replicon = HCV replicon assay (antiviral activity, luciferase endpoint); assay type: cell-based, hepatitis C virus
Source text: (§1) Stable HCV replicons of different genotypes may be used for anti-HCV evaluation. We used the subgenomic HCV replicons of genotype 1a (H77 strain), 1b (Con1 strain), and 2a (JFH-1 strain), which are Huh7 human hepatoma cell lines that contains an HCV replicon.
The HCV replicon antiviral evaluation assay examined the effects of compounds at six serial dilutions. Human interferon alpha-2b (rIFNα-2b) and/or Sofosbuvir were included in each run as a positive control compound.
(§2) Briefly, the replicon cells were plated at 5,000 cells/well into 96-well plates that were dedicated for the analysis of cell numbers (cytotoxicity) or antiviral activity. On the following day, samples were diluted with assay media and added to the appropriate wells. Cells were processed 72 hours later when the cells were still sub-confluent. For the luciferase endpoint assay, HCV replicon levels were assessed as replicon-derived Luc activity. The concentration of drug that reduced cell viability was assessed by the fluorometric CytoTox-1 cell proliferation assay (Promega), (expressed as cell numbers). For the qRT-PCR/TaqMan assay, total RNA was extracted from the replicon cells using RNeasy 96 kit (Qiagen) according to the manufacturer's protocol. Real-time RTPCR/TaqMan assays were performed to measure copy numbers of the replicon RNA and cellular ribosomal RNA. Where applicable EC50 (concentration inhibiting HCV replicon by 50%), EC90 (concentration inhibiting HCV replicon by 90%), CC50 (concentration decreasing cell viability by 50%), CC90 (concentration decreasing cell viability by 90%) and SI (selectivity indices: CC50/EC50 and CC90/EC90) values were derived.

[1] = HCV replicon assay, cell viability (CytoTox-1); assay type: cell-based; conditions: human, Huh7 hepatoma cells containing a subgenomic HCV replicon, In vitro HCV replicon assay, post-infection, read-out: CC50 (concentration decreasing cell viability by 50%)
Description: as §1
as §2, with “Where applicable EC50 (concentration inhibiting HCV replicon by 50%), EC90 (concentration inhibiting HCV replicon by 90%), CC50 (concentration decreasing cell viability by 50%), CC90 (concentration decreasing cell viability by 90%) and SI (selectivity indices: CC50/EC50 and CC90/EC90) values were derived.” left out

[2] = test system: cell culture-derived HCV (HCVcc); experiment: microbe, parasite or virus in culture; assay type: cell-based, hepatitis C virus
Description: (§3) Huh7.5 cells were grown in Dulbecco's modified essential media (DMEM), 10%0/fetal bovine serum (FBS), 1% penicillin-streptomycin (pen-strep), 1% Non-essential amino acids (NEAA) in a 5% CO2 incubator at 37° C. Huh7.5 cells were seeded at 1×10^4 cells per well into 96-well plates according to Southern Research Institute standard format. Test articles were serially diluted with DMEM plus 5% FBS. The diluted compound in the amount of […] was mixed with equal volume of cell culture-derived HCV (HCVcc), then applied to appropriate wells in the plate. Human interferon alpha-2b (rIFNα-2b) and/or Sofosbuvir were included as a positive control. After 72 hr incubation at 37° C., the cells were lysed for measurement of luciferase activity using Renilla Luciferase Assay System (Promega) according to manufacturer's instruction. The number of cells in each well were determined by CytoTox-1 reagent (Promega). Test articles were tested at 6 serial dilutions in triplicate to derive, if applicable, EC50 and EC90 (concentration inhibiting HCVcc infectivity by 50% and 90%, respectively), CC50 (concentration decreasing cell viability by 50%) and SI (selectivity index: CC50/EC50) values (Table 1).

in vitro = assay type: cell-based; conditions: human
Description: as §3

For `COC(=O)C1=C(C)NC(C)=C(C(=O)OC(C)C)C1c1cccc2nonc12` (centres unmarked) [Isradipine, isradipine], the “anti-Hepatitis C activity (in words)” value (HCV replicon; HCV replicon assay) was “significant anti-Hepatitis C activity”, the EC50 (HCV replicon; Hepatitis C virus, GT1B, 72 h, read-out: EC50 (concentration inhibiting HCV replicon by 50%)) was 51.4 µM and the “Selectivity index (CC50/EC50)” value (HCV replicon; In vitro HCV replicon assay, post-infection) was 0.99. The CC50 at 72 h [1] was 50.8 µM, the EC50 ([2]; Hepatitis C virus, Huh7.5, 72 h, read-out: EC50 (concentration inhibiting HCVcc infectivity by 50%)) was 12.6 µM and the “Selectivity index (CC50/EC50)” value ([2]; In vitro HCV cc assay, pre-infection) was 4.07. The “anti-Hepatitis C activity (in words)” value ([2]; hepatitis C viral infectivity assay) was “significant anti-Hepatitis C activity” and the CC50 at 72 h (in vitro) was 51.2 µM.
